Assay results as given in US20260250316A1, “CRYSTALLINE FORMS OF A MACROCYCLIC PEPTIDE ANTIBIOTIC” (Hoffmann-La Roche Inc., priority 2022, published 2026).

What was measured:
physchem = details: water, approximately 1 g equilibrated in 8.5 mL of water at 20° C. for 2 days, centrifuged, uPLC
Procedure: Approximately 1 g of substance was equilibrated in 8.5 mL of water at 20° C. for 2 days. 1 mL of suspension was centrifuged. The filtrate was analyzed by uPLC.

CN1C(=O)[C@H](CCCCN)NC(=O)[C@H](CCCN)NCc2cccnc2Sc2cccc(-c3ccc(C(=O)O)cc3)c2CNC(=O)[C@@H]1Cc1c[nH]c2ccccc12.Cl [Amorphous HCl salt, 4-[(11S,14S,17S)-14-(4-Aminobutyl)-11-(3-aminopropyl)-17-(1H-indol-3-ylmethyl)-16-methyl-12,15,18-trioxo-2-thia-4,10,13,16,19-pentazatricyclo[19.4.0.03,8]pentacosa-1(25),3(8),4,6,21,23-hexaen-22-yl]benzoic acid, mono hydrochloric acid salt]
Solubility (approximately 1 g equilibrated in 8.5 mL of water at 20° C. for 2 days, centrifuged, uPLC): 177.6 mg/mL

CN1C(=O)[C@H](CCCCN)NC(=O)[C@H](CCCN)NCc2cccnc2Sc2cccc(-c3ccc(C(=O)O)cc3)c2CNC(=O)[C@@H]1Cc1c[nH]c2ccccc12.Cl [Form A family HCl salt]
solubility at 2 days (physchem): 124 mg/mL

CN1C(=O)[C@H](CCCCN)NC(=O)[C@H](CCCN)NCc2cccnc2Sc2cccc(-c3ccc(C(=O)O)cc3)c2CNC(=O)[C@@H]1Cc1c[nH]c2ccccc12 [Form A family free zwitterion]
solubility at 2 days (physchem): < 1 mg/mL

CN1C(=O)[C@H](CCCCN)NC(=O)[C@H](CCCN)NCc2cccnc2Sc2cccc(-c3ccc(C(=O)O)cc3)c2CNC(=O)[C@@H]1Cc1c[nH]c2ccccc12.Cl [HCl salt, 4-[(11S,14S,17S)-14-(4-Aminobutyl)-11-(3-aminopropyl)-17-(1H-indol-3-ylmethyl)-16-methyl-12,15,18-trioxo-2-thia-4,10,13,16,19-pentazatricyclo[19.4.0.03,8]pentacosa-1(25),3(8),4,6,21,23-hexaen-22-yl]benzoic acid]
Solubility compared to the free base (in words) (especially in aqueous media): dramatically increased solubility compared to the free base

CN1C(=O)[C@H](CCCCN)NC(=O)[C@H](CCCN)NCc2cccnc2Sc2cccc(-c3ccc(C(=O)O)cc3)c2CNC(=O)[C@@H]1Cc1c[nH]c2ccccc12 [free base, 4-[(11S,14S,17S)-14-(4-Aminobutyl)-11-(3-aminopropyl)-17-(1H-indol-3-ylmethyl)-16-methyl-12,15,18-trioxo-2-thia-4,10,13,16,19-pentazatricyclo[19.4.0.03,8]pentacosa-1(25),3(8),4,6,21,23-hexaen-22-yl]benzoic acid]
Solubility in water (in words) (water): hardly soluble in water
